Where two headings read alike, the source gives them in different places. Where no end group is shown, it is not given here. Where only a bound is given, the exact number is not on record here.

For one assay, the system named is E. coli E423-17 biofilms. Kind of assay: Disruption of preformed biofilms in vitro (XTT). Type of assay: cell-based, Escherichia coli. As to conditions: for effect on biofilms: 24 h preformed biofilm. As for the experimental part:
Effects of Peptides on Established Biofilms in Vitro. Bacteria (S. aureus USA300 LAC and E. coli E423-17) were grown in rich TSB media overnight. A second inoculation was made the next day to reach an exponential phase (OD600˜0.4). Microtiter plates (96 wells, Corning Costar Cat no. 3595), after aliquoting with 180 μL of the culture to each well, were incubated at 37° C. for 24 hours to form biofilms in rich TSB. Media were aspirated post incubation, and the attached biofilms were washed with 1×PBS to remove the planktonic bacteria. […] Biofilms treated with water served as the positive control, while media without bacterial inoculation served as the negative control. Live cells in the biofilms were quantitated using XTT as described above. Absorbance was read at 450 nm (only media with XTT containing wells served as the blank) using a ChroMate™ microtiter plate reader. Percentage biofilm growth for the peptide was plotted by assuming 100% biofilm growth in bacterial control alone. The data were represented as mean±SD; plots were generated using GraphPad prism 7, where * indicates p<0.05, **p<0.01, and ***P<0.001, and ****p<0.0001 (one-way analyses of variance).
For orientation: Tetrazolium dyes change colour on reduction, which living cells bring about.

The test system of another assay is P. aeruginosa E411-17. Kind of assay: microbe, parasite or virus in culture. Type of assay: cell-based, Pseudomonas aeruginosa. As to conditions: for MIC: read-out: Antimicrobial activity (MIC). The essentials:
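Broth microdilution with twofold peptide dilutions, using exponential-phase bacteria at about 10^5 CFU/mL in MHB, incubated overnight at 37 °C and read at OD600. MIC, reported as a range, is the peptide concentration with no growth. Some tests used diluted MHB/TSB/LB, adjusted pH, or added NaCl or human serum.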

The test system of assay [1] is MRSA USA300. Put plainly: microbe, parasite or virus in culture. It counts as cell-based, Staphylococcus aureus. Particulars: 17 passages at sub-MIC. Here is the method:
The experiment was conducted as described (Lakshmaiah et al. (2020) Proc. Natl. Acad. Sci., 117:19446-19454). Briefly, MRSA USA300 was grown to the exponential phase in MHB and diluted to OD600 0.001 (˜10^5 CFU/mL). Aliquots of 90 μL were added to a 96-well polystyrene microplate (Costar, Corning, NY) containing 10 μL of serially diluted LL-37mini, nafcillin, or daptomycin. After overnight incubation at 37° C., the plates were read at 600 nm using a ChroMate™ microplate reader (GMI, Ramsey, MN). Untreated bacterial culture and medium were included as untreated control and blank, respectively. The MIC is the lowest peptide concentration that inhibited the bacterial growth. The wells with sub-MIC levels of the peptides that retained growth approximately half the growth of the control wells were reinoculated in fresh MHB with sub-MIC concertation of peptides or antibiotics to attain exponential phase for MIC determination. In total, 17 passages of the bacterial cultures were conducted. A rapid increase in MIC is an indication of antibiotic resistance.

Assay [2] deals with MRSA USA300. Kind of assay: Killing kinetics. It counts as cell-based, Staphylococcus aureus. As to conditions: 2×MIC. As for the experimental part:
MRSA USA300 was grown to the exponential phase (OD600˜0.3) in MHB. The culture was diluted to OD600 0.001 (˜10^5 CFU/mL). One milliliter of bacterial suspension was then mixed with LL-37mini or daptomycin at 2×MIC and incubated at 37° C. After 15, 30, 60, 90, and 120 minutes of incubation, 50 μL was taken and serially diluted with 1×PBS. Then, 50 μL of the diluted suspension was plated on mannitol salt agar plates (NEOGEN, MI). The plates were incubated overnight at 37° C. for bacterial CFU determination the next day.
For bacterial killing kinetics study, MRSA USA300 and P. aeruginosa E411-17 was grown to the exponential phase (OD600˜0.3) in MHB. The culture was diluted to OD600 0.001 (˜10^5 CFU/mL). One milliliter of bacterial suspension was then mixed with the peptide, colistin or daptomycin at 4×MIC and incubated at 37° C. After 15, 30, 60, 90, and 120 minutes incubation, 50 μL was taken and serially diluted with 1×PBS. Then, 50 μL of the diluted suspension was plated on Mannitol Salt Agar (MRSA USA300) or Cetrimide Agar (P. aeruginosa E411-17) plates (NEOGEN, MI). The plates were incubated overnight at 37° C. for bacterial CFU count the next day.

For the molecule `CC[C@H](C)[C@H](NC(=O)[C@H](CCCCN)NC(=O)[C@H](CCC(=O)O)NC(=O)[C@H](CCCCN)NC(=O)[C@H](CO)NC(=O)[C@H](CCCCN)NC(=O)[C@H](CCCNC(=N)N)NC(=O)[C@H](Cc1ccccc1)NC(=O)[C@H](Cc1ccccc1)NC(=O)[C@H](CC(=O)O)NC(=O)CNC(=O)[C@H](CC(C)C)NC(=O)[C@@H](N)CC(C)C)C(=O)NCC(=O)N[C@@H](CCCCN)C(=O)N[C@@H](CCC(=O)O)C(=O)N[C@@H](Cc1ccccc1)C(=O)N[C@@H](CCCCN)C(=O)N[C@@H](CCCNC(=N)N)C(=O)N[C@H](C(=O)N[C@H](C(=O)N[C@@H](CCC(N)=O)C(=O)N[C@@H](CCCNC(=N)N)C(=O)N[C@H](C(=O)N[C@@H](CCCCN)C(=O)N[C@@H](CC(=O)O)C(=O)N[C@@H](Cc1ccccc1)C(=O)N[C@@H](CC(C)C)C(=O)N[C@@H](CCCNC(=N)N)C(=O)N[C@@H](CC(N)=O)C(=O)N[C@@H](CC(C)C)C(=O)N[C@H](C(=O)N1CCC[C@H]1C(=O)N[C@@H](CCCNC(=N)N)C(=O)N[C@H](C(=O)N[C@@H](CCC(=O)O)C(=O)N[C@@H](CO)C(=O)O)[C@@H](C)O)C(C)C)[C@@H](C)CC)C(C)C)[C@@H](C)CC` [LL-37], the effect on biofilms result is given as “dose-dependent antibiofilm effect” in the assay with E. coli E423-17 biofilms (12.5% MHB) and “subtle effect” in the assay on E. coli E423-17 biofilms (100% MHB).
Regarding `CCCCCCCCCC(=O)N[C@@H](Cc1c[nH]c2ccccc12)C(=O)N[C@H](CC(N)=O)C(=O)N[C@@H](CC(=O)O)C(=O)N[C@@H]1C(=O)NCC(=O)N[C@@H](CCCN)C(=O)N[C@@H](CC(=O)O)C(=O)N[C@H](C)C(=O)N[C@@H](CC(=O)O)C(=O)NCC(=O)N[C@H](CO)C(=O)N[C@@H]([C@H](C)CC(=O)O)C(=O)N[C@@H](CC(=O)c2ccccc2N)C(=O)O[C@@H]1C` [Daptomycin], the MIC with P. aeruginosa E411-17 (Human serum 5%) was above 8 µM; in the assay with P. aeruginosa E411-17 (Human serum 10%) it was above 8 µM; in the assay on P. aeruginosa E411-17 (Pseudomonas aeruginosa, E41117, pH 6.21), above 8 µM; in the assay with P. aeruginosa E411-17 (Pseudomonas aeruginosa, E41117, pH 7.22), above 8 µM; with P. aeruginosa E411-17 (Pseudomonas aeruginosa, E41117, pH 8.13), above 8 µM; in the assay with P. aeruginosa E411-17 (Pseudomonas aeruginosa, E41117, NaCl (150 mM)) it was above 8 µM. Further, the resistance development result with MRSA USA300 [1] is given as “did not develop resistance”. For the same molecule, the time to kill with MRSA USA300 [2] was 2 h.
For RRWWRWWR-NH2 [W543], the “Activity (MIC) P. aeruginosa” value with P. aeruginosa E411-17 (E411-17) stood at 8 µM. Also, the resistance development entry in the assay on MRSA USA300 [1] is given as “essentially no change in the MIC values”. The “time at which CFU was not detected (killing)” value in the assay on MRSA USA300 [2] was found to be 120 min. Also, in the assay with E. coli E423-17 biofilms (24 hour preformed biofilms, 16 μM), the “effect on live cells in biofilms” value is “almost eliminated”. In addition, in the assay with E. coli E423-17 biofilms (24 hour preformed biofilms, treated at 8 μM), the “reduction of live bacteria” value is around 40%.

The record behind these values is patent US20250101062A1, “ANTIMICROBIAL PEPTIDES” (Board of Regents of the University of Nebraska, priority 2023, published 2025).
